For 18 compounds, IC50 results are on record in US10745377B2, “Piperidine or piperazine linked imidazole and triazole derivatives and methods of use” (MERCK SHARP & DOHME CORP., priority 2013, dated 2020).

Format in all cases: biochemical
The target of one experiment is T1, CYP3A4 (Homo sapiens, UniProt P08684).
T1 construct: 0.1 mg/mL protein human liver microsomes (BD Gentest); tissue BD Gentest; host or cells: human liver microsomes
Briefly: Cocktail assay for CYPs in human liver microsomes: CYP3A4 (midazolam 1′-hydroxylation). Particulars: 2 μM midazolam, 10 min at 37° C., 6 concentrations up to 10 μM.

The target of another experiment is T2, CYP2C19 (Homo sapiens, UniProt P33261).
T2 construct: 0.1 mg/mL protein human liver microsomes (BD Gentest); tissue BD Gentest; host or cells: human liver microsomes
The experiment is described as follows: Cocktail assay for CYPs in human liver microsomes: CYP2C19 (mephenytoin 4′-hydroxylation). Particulars: 30 μM mephenytoin, 10 min at 37° C., 6 concentrations up to 10 μM.

The next experiment concerns the target T3, CYP2C9 (Homo sapiens, UniProt P11712).
T3 construct: 0.1 mg/mL protein human liver microsomes (BD Gentest); tissue BD Gentest; host or cells: human liver microsomes
The experiment is described as follows: Cocktail assay for CYPs in human liver microsomes: CYP2C9 (diclofenac 4′-hydroxylation). The following applies: 5 μM diclofenac, 10 min at 37° C., 6 concentrations up to 10 μM.

Another experiment concerns the target T4, CYP1A2 (Homo sapiens, UniProt P05177).
T4 construct: 0.1 mg/mL protein human liver microsomes (BD Gentest); tissue BD Gentest; host or cells: human liver microsomes
T4 sequence (P05177 1-516): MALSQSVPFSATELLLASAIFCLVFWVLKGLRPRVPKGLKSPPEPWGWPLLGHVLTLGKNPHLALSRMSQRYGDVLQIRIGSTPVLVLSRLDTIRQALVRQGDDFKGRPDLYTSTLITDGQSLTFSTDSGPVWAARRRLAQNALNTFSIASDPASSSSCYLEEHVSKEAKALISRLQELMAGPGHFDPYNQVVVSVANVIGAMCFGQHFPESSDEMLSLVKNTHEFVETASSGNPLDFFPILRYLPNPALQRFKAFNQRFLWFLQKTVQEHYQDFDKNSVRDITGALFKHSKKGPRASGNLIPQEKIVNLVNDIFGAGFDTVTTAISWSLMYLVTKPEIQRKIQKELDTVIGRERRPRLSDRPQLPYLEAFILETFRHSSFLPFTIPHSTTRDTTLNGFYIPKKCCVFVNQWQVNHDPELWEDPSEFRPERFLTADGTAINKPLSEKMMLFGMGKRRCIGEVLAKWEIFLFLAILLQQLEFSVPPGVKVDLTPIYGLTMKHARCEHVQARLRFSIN
Briefly: Cocktail assay for CYPs in human liver microsomes: CYP1A2 (phenacetin O-deethylation).

Another experiment deals with T5, CYP2D6 (Homo sapiens, UniProt P10635).
T5 construct: 0.1 mg/mL protein human liver microsomes (BD Gentest); tissue BD Gentest; host or cells: human liver microsomes
Briefly: Cocktail assay for CYPs in human liver microsomes: CYP2D6 (dextromethorphan O-demethylation). The following applies: 5 μM dextromethorphan, 10 min at 37° C., 6 concentrations up to 10 μM.

[1] abbreviates: IC50 (nM) CYP3A4, human liver microsomes 0.1 mg/mL.
Where [2] appears, read: IC50 (nM) CYP2C19, human liver microsomes 0.1 mg/mL.
Where [3] appears, read: IC50 (nM) CYP2C9, human liver microsomes 0.1 mg/mL.
The mark [4] stands for this setting: IC50 (nM) CYP2D6, human liver microsomes 0.1 mg/mL.
Where [5] appears, read: human liver microsomes 0.1 mg/mL, read-out: IC50 (nM) CYP3A4.
Setting [6] is: human liver microsomes 0.1 mg/mL, read-out: IC50 (nM) CYP2C19.
Setting [7] is: human liver microsomes 0.1 mg/mL, read-out: IC50 (nM) CYP2C9.
The mark [8] stands for this setting: human liver microsomes 0.1 mg/mL, 10 μM phenacetin, 10 min at 37° C., 6 concentrations up to 10 μM, read-out: IC50 (nM) CYP1A2.
[9] abbreviates: human liver microsomes 0.1 mg/mL, read-out: IC50 (nM) CYP2D6.

Where two headings read alike, the source gives them in different places.

T5 sequence (P10635 whole entry): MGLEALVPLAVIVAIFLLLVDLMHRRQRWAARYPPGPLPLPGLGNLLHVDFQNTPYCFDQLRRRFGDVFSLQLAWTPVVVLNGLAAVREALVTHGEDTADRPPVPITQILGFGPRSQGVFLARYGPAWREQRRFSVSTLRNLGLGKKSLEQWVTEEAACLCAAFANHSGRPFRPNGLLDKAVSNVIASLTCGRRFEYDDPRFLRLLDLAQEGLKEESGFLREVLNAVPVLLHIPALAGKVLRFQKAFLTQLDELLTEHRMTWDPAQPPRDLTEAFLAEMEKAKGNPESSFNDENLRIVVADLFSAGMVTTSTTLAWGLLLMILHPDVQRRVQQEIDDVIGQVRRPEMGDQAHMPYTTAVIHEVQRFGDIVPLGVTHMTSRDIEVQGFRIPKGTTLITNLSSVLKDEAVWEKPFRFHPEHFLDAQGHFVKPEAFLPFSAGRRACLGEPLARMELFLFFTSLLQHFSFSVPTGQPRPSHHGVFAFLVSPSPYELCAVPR
T2 sequence (P33261 whole entry): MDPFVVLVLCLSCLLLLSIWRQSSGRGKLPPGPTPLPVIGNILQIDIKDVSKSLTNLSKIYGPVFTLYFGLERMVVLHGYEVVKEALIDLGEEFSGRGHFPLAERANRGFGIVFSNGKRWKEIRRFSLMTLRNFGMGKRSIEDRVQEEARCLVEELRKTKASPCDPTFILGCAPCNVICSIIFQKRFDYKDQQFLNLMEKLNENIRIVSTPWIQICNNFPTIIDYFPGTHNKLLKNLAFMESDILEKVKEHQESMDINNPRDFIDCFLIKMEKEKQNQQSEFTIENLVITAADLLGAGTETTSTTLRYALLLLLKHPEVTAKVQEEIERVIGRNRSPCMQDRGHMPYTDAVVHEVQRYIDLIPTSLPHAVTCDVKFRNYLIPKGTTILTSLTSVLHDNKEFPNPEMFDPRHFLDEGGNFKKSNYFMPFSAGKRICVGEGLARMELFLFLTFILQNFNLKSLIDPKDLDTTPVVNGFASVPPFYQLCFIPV
T1 sequence (P08684 whole entry): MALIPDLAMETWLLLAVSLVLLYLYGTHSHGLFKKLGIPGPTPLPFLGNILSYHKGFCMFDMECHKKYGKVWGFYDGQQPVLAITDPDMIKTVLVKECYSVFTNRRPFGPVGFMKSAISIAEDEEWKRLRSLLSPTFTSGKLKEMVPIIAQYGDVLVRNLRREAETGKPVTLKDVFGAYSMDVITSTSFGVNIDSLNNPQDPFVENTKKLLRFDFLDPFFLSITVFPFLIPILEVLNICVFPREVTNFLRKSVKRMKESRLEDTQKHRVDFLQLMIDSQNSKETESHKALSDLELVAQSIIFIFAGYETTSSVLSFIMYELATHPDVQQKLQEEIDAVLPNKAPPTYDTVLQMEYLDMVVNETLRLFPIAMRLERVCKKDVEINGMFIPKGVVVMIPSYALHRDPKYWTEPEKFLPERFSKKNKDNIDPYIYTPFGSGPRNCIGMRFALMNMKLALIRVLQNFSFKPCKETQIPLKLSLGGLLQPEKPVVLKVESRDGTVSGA
T3 sequence (P11712 whole entry): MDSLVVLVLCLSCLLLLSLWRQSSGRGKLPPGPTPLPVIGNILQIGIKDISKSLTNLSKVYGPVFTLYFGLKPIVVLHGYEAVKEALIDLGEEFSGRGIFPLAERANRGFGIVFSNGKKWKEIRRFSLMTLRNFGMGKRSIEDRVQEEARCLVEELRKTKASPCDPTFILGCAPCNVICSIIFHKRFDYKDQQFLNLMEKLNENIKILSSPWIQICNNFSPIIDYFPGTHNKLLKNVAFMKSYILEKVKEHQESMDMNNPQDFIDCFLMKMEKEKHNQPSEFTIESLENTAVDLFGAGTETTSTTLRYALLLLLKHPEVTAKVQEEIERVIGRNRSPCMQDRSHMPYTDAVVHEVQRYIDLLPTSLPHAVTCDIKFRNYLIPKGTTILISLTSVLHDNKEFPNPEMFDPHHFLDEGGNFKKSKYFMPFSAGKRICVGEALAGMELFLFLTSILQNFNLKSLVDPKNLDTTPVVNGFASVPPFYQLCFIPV
Protocol for CYP1A2: (§1) Determination of IC50 in a Cocktail Assay for CYPs 1A2, 2C9, 2C19, 2D6 and 3A4
(§2) This assay was performed in a standard 96-well plate design. […] The incubation substrate mix contains 10 μM phenacetin (1A2), 5 μM diclofenac (2C9), 30 μM mephenytoin (2C19), 5 μM dextromethorphan (2D6) and 2 μM midazolam (3A4), 0.1 mg/mL protein human liver microsomes (BD Gentest), 1 mM NAPDH, 3.3 mM MgCl2 and 100 mM potassium phosphate buffer (pH 7.4). The production of the metabolite of each probe substrate was determined after incubation for 10 min at 37° C. Quantitation of the metabolite peak area ratio against an internal standard (tolbutamide) was determined by LC/MS/MS analysis following acetonitrile treatment of the incubations.
(§3) Samples were analyzed in the MRM mode with a SCIEX API-4000 mass spectrometer (Applied Biosystems, Foster City, Calif.), with a Shimadzu LC-20 AD pump (Shimadzu corporation, Kyoto, JP) and a CTC PAL autosampler (Agilent Technologies, Switzerland). A Phenomenex, Luna, 5 μm, 100 A, 2.00×30 mm HPLC column was used for the separation. The mobile phases were: (A) 0.1% formic acid in water and (B) 0.1% formic acid in acetonitrile. The binary gradient was as follows.
(§4) The mass spectrum parameters were as follows:
(§5) The LC/MS/MS parameters for the analytes were as follows.
(§6) The peak area ratio of the analyte to the internal standard was used to quantify the metabolite. The values of peak area ratios in the presence of test compound were compared to those of maximum or minimum controls and were expressed as % inhibition by interpolating between the maximum and minimum peak area ratios. Incubations with no inhibitor were defined as the maxima.
(§7) The following equation was used to calculate the % inhibition: [1−[(X−Low control)/(High control−Low control)]]*100
(§8) For the IC50 calculation, SigmaPlot was used to plot the mean % inhibition versus the test compound concentrations and for non-linear regression analysis of the data. Depending on the range of data points defining the inhibition curve, the data may have been fit to the 4-parameter logistic equation.
Protocol for CYP2C19: as §1, §2, §3, §4, §5, §6, §7, §8
Protocol for CYP2C9: as §1, §2, §3, §4, §5, §6, §7, §8

In the case of `C[C@H](c1ccc(F)cc1)n1cncc1CN1CCC(C#N)(c2ccccc2)CC1` [Compound 14, (R)-1-((1-(1-(4-fluorophenyl)ethyl)-1H-imidazol-5-yl)methyl)-4-phenylpiperidine-4-carbonitrile], the half-maximal inhibitory concentration (IC50) at CYP3A4 (setting [1]) is 17 nM; against CYP2C19 (setting [2]) it was 2600 nM; against CYP2C9 (setting [3]), 2200 nM; on CYP1A2, 5520 nM; on CYP2D6 (setting [4]), 3700 nM.

Take `COC(=O)C1(c2ccccc2)CCN(Cc2cncn2[C@H](C)c2ccc(F)cc2)CC1` [Compound 15, (R)-methyl 1-((1-(1-(4-fluorophenyl)ethyl)-1H-imidazol-5-yl)methyl)-4-phenylpiperidine-4-carboxylate]: the half-maximal inhibitory concentration (IC50) is 16 nM against CYP3A4 (setting [1]); 1250 nM at CYP2C19 (setting [2]); 1390 nM at CYP2C9 (setting [3]); 2420 nM at CYP1A2; 2080 nM at CYP2D6 (setting [4]).

For the compound `CC(c1ccccc1-c1ccc(F)cc1)n1cncc1CN1CCC(F)(F)C1` (stereo not drawn) [Compound 16, 5-((3,3-difluoropyrrolidin-1-yl)methyl)-1-(1-(4′-fluoro-[1,1′-biphenyl]-2-yl)ethyl)-1H-imidazole], the half-inhibitory concentration (IC50) was 18 nM at CYP3A4 (setting [5]); 4270 nM at CYP2C19 (setting [6]); 7470 nM on CYP2C9 (setting [7]); over 10000 nM on CYP1A2 (setting [8]); 1930 nM on CYP2D6 (setting [9]).

For the compound `CC(c1ccccc1-c1ccc(F)cc1)n1cncc1CN1CCC(O)C1` (stereo not drawn) [Compound 17, 1-((1-(1-(4′-fluoro-[1,1′-biphenyl]-2-yl)ethyl)-1H-imidazol-5-yl)methyl) pyrrolidin-3-ol], the IC50 is 29 nM on CYP3A4 (setting [5]); over 10000 nM on CYP2C19 (setting [6]); over 10000 nM at CYP2C9 (setting [7]); over 10000 nM on CYP1A2 (setting [8]); 4040 nM on CYP2D6 (setting [9]).

With `CC(c1ccccc1-c1ccc(F)cc1)n1cncc1CN1CCCNC(=O)C1` (stereo not drawn) [Compound 18, 4-((1-(1-(4′-fluoro-[1,1′-biphenyl]-2-yl)ethyl)-1H-imidazol-5-yl)methyl)-1,4-diazepan-2-one], the IC50 was 29 nM on CYP3A4 (setting [5]); 4790 nM at CYP2C19 (setting [6]); over 10000 nM on CYP2C9 (setting [7]); over 10000 nM at CYP1A2 (setting [8]); over 10000 nM at CYP2D6 (setting [9]).

Take `C[C@H](c1ccc(C#N)cc1)n1cncc1CN1CCC2(CC1)C(=O)NCN2c1ccccc1` [Compound 19, (R)-4-(1-(5-((4-oxo-1-phenyl-1,3,8-triazaspiro[4.5]decan-8-yl)methyl)-1H-imidazol-1-yl)ethyl) benzonitrile]: the IC50 on CYP3A4 (setting [5]) was 50 nM; at CYP2C19 (setting [6]), 2420 nM; at CYP2C9 (setting [7]), 1660 nM; at CYP1A2 (setting [8]) it was over 10000 nM; at CYP2D6 (setting [9]), 9970 nM.

On to `CC(c1ccccc1-c1ccc(F)cc1)n1cncc1CN1CCS(=O)(=O)CC1` (stereo not drawn) [Compound 20, 4-((1-(1-(4′-fluoro-[1,1′-biphenyl]-2-yl)ethyl)-1H-imidazol-5-yl)methyl) thiomorpholin 1,1-dioxide], for which the IC50 on CYP3A4 (setting [5]) is 35 nM; at CYP2C19 (setting [6]), 9910 nM; on CYP2C9 (setting [7]) it was over 10000 nM; on CYP1A2 (setting [8]), over 10000 nM; at CYP2D6 (setting [9]) it was over 10000 nM.

With `C[C@H](c1ccc(C#N)cc1)n1cncc1CN1CCC(c2nc3ccccc3o2)CC1` [Compound 21, (R)-4-(1-(5-((4-(benzo[d]oxazol-2-yl)piperidin-1-yl)methyl)-1H-imidazol-1-yl)ethyl) benzonitrile], the IC50 on CYP3A4 (setting [5]) is 35 nM; on CYP2C19 (setting [6]) it was 8700 nM; at CYP2C9 (setting [7]) it was 4080 nM; on CYP1A2 (setting [8]), over 10000 nM; at CYP2D6 (setting [9]), 7520 nM.

Take `C[C@H](c1ccc(C#N)cc1)n1cncc1CN1CCC(c2nc3ccccc3s2)CC1` [Compound 22, (R)-4-(1-(5-((4-(benzo[d]thiazol-2-yl)piperidin-1-yl)methyl)-1H-imidazol-1-yl)ethyl) benzonitrile]: the IC50 is 26 nM on CYP3A4 (setting [5]); 4690 nM at CYP2C19 (setting [6]); 1760 nM at CYP2C9 (setting [7]); over 10000 nM on CYP1A2 (setting [8]); 3210 nM on CYP2D6 (setting [9]).

Consider `C[C@H](c1ccc(F)cc1)n1cncc1CN1CCN(c2nc3ccccc3o2)CC1` [Compound 23, (R)-2-(4-((1-(1-(4-fluorophenyl)ethyl)-1H-imidazol-5-yl)methyl)piperazin-1-yl)benzo[d]oxazole], for which the IC50 is 7 nM at CYP3A4 (setting [5]); 3160 nM at CYP2C19 (setting [6]); 4370 nM at CYP2C9 (setting [7]); over 10000 nM on CYP1A2 (setting [8]); 2920 nM on CYP2D6 (setting [9]).

In the case of `C[C@H](c1ccc(C#N)cc1)n1cncc1CN1CCN(c2nc3ccccc3o2)CC1` [Compound 24, (R)-4-(1-(5-((4-(benzo[d]oxazol-2-yl)piperazin-1-yl)methyl)-1H-imidazol-1-yl)ethyl) benzonitrile], the half-inhibitory concentration (IC50) on CYP3A4 (setting [5]) is 11 nM; on CYP2C19 (setting [6]), 2260 nM; on CYP2C9 (setting [7]) it was 3430 nM; at CYP1A2 (setting [8]), over 10000 nM; at CYP2D6 (setting [9]), 3080 nM.

Regarding `N#Cc1ccc(C2(n3cncc3CN3CCN(c4nc5ccccc5o4)CC3)CC2)cc1` [Compound 25, 4-(1-(5-((4-(benzo[d]oxazol-2-yl)piperazin-1-yl)methyl)-1H-imidazol-1-yl)cyclopropyl) benzonitrile], the IC50 at CYP3A4 (setting [5]) was 28 nM; on CYP2C19 (setting [6]), over 10000 nM; on CYP2C9 (setting [7]), 9590 nM; on CYP1A2 (setting [8]), over 10000 nM; on CYP2D6 (setting [9]), 2910 nM.

As to `CC(C)OCCn1cncc1CN1CCN(c2nc3ccccc3o2)CC1` [Compound 26, 2-(4-((1-(2-isopropoxyethyl)-1H-imidazol-5-yl)methyl)piperazin-1-yl)benzo[d]oxazole], the IC50 was 21 nM on CYP3A4 (setting [5]); over 10000 nM on CYP2C19 (setting [6]); over 10000 nM on CYP2C9 (setting [7]); over 10000 nM on CYP1A2 (setting [8]); 1040 nM on CYP2D6 (setting [9]).

With `CC(C)C(C)n1cncc1CN1CCN(c2nc3ccccc3o2)CC1` (stereo not drawn) [Compound 27, 2-(4-((1-(3-methylbutan-2-yl)-1H-imidazol-5-yl)methyl)piperazin-1-yl)benzo[d]oxazole], the IC50 at CYP3A4 (setting [5]) was 9 nM; at CYP2C19 (setting [6]) it was over 10000 nM; on CYP2C9 (setting [7]) it was over 10000 nM; at CYP1A2 (setting [8]), over 10000 nM; on CYP2D6 (setting [9]), 1760 nM.

As for `C[C@H](c1ccc(C#N)cc1)n1cncc1CN1CCN(c2nc3cccc(F)c3o2)CC1` [Compound 28, (R)-4-(1-(5-((4-(7-fluorobenzo[d]oxazol-2-yl)piperazin-1-yl)methyl)-1H-imidazol-1-yl)ethyl)benzonitrile], the IC50 is 10 nM at CYP3A4 (setting [5]); 3570 nM on CYP2C19 (setting [6]); 3870 nM on CYP2C9 (setting [7]); over 10000 nM at CYP1A2 (setting [8]); 1110 nM on CYP2D6 (setting [9]).

With `Cc1cccc2nc(N3CCN(Cc4cncn4[C@H](C)c4ccc(C#N)cc4)CC3)oc12` [Compound 29, (R)-4-(1-(5-((4-(7-methylbenzo[d]oxazol-2-yl)piperazin-1-yl)methyl)-1H-imidazol-1-yl)ethyl)benzonitrile], the 50% inhibitory concentration (IC50) on CYP3A4 (setting [5]) is 20 nM; on CYP2C19 (setting [6]), 4970 nM; at CYP2C9 (setting [7]), 2490 nM; on CYP1A2 (setting [8]), over 10000 nM; at CYP2D6 (setting [9]), 2770 nM.

`C[C@H](c1ccc(C#N)cc1)n1cncc1CN1CCN(c2nc3ccc(F)cc3o2)CC1` [Compound 30, (R)-4-(1-(5-((4-(6-fluorobenzo[d]oxazol-2-yl)piperazin-1-yl)methyl)-1H-imidazol-1-yl)ethyl)benzonitrile]: the IC50 on CYP3A4 (setting [5]) was 7 nM; on CYP2C19 (setting [6]), 8400 nM; at CYP2C9 (setting [7]), 5550 nM; at CYP1A2 (setting [8]), over 10000 nM; on CYP2D6 (setting [9]), 1620 nM.

`C[C@H](c1ccc(C#N)cc1)n1cncc1CN1CCN(c2nc3ccc(F)c(F)c3o2)CC1` [Compound 31, (R)-4-(1-(5-((4-(6,7-difluorobenzo[d]oxazol-2-yl)piperazin-1-yl)methyl)-1H-imidazol-1-yl)ethyl) benzonitrile]: the half-inhibitory concentration (IC50) on CYP3A4 (setting [5]) is 7 nM; on CYP2C19 (setting [6]), 3740 nM; on CYP2C9 (setting [7]), 2320 nM; at CYP1A2 (setting [8]) it was over 10000 nM; on CYP2D6 (setting [9]), 2870 nM.
